Test results from US7005424B2, “Nucleic acid encoding an E1A gene product sensitizes HER-2/neu overexpressing cancer cells to chemotherapy” (priority 1996, dated 2006).
Starred links: 1 amine or outer side, 2 acyl side, 3 side chain; linkers in the order of their positions; H or OH if unused. Positions of bridges follow the written chain, without caps; N, C: chain ends. Non-standard residues stand in square brackets, D forms with d. Residues, ends and D or L forms follow the SMILES beside them. Chains are numbered I, II in the order given. Actinocin(9to1) = Cc1c2oc3c(C)ccc(C(=O)[*:1])c3nc-2c(C(=O)[*:2])c(N)c1=O; NMeV = CN[C@H](C(=O)O)C(C)C; Sar = CNCC(=O)O

Key:
[1] = in vivo; cited from earlier work
MDA-MB-435 cells = experiment: MTT assay, Ad.E1A and Taxol; type: cell-based; details: low neu expressing cells
Procedure: The percentage of cell growth was calculated by defining the absorption of cells not treated with taxol or E1A as 100%. Bars, SD.
FIG. 34. […] The percentage of cell growth was calculated by defining the absorption of cells not treated with taxol or E1A as 100%. Bars, SD.
Taxol was given from 0.1 μM to 100 μM (FIGS. 33B and 33D).

B.E1A1.Hy = experiment: MTT assay, taxol on rat fibroblasts with various neu and E1A expression; type: cell-based; details: taxol 0.1–10 μM; compared with B104-1-1, B.neo, B.E1A1.D1
Procedure: FIG. 30B. Effect of taxol (0.01–100 μM) on the cell growth of rat fibroblast with various HER-2/neu and E1A expression. […] Bars, SD.
In order to examine the effects of taxol on cell growth rat fibroblasts with various neu and E1A expression were grown in varying concentrations of taxol 0.01–100 μM. The cell lysates were subsequently run through 8% SDS-PAge and blotted with anti-p185 and anti-E1A antibodies (FIG. 30A). The effects on cell growth were measured using the MTT assay as described earlier.

Compound	dose excreted or detected intact in the urine [1]	sensitivity to taxol alone (MDA-MB-435 cells)	inhibition of cell growth (MTT) (B.E1A1.Hy)
Cc1c2oc3c(C)ccc(C(=O)N[C@@H]4C(=O)N[C@H](C(C)C)C(=O)N5CCC[C@H]5C(=O)N(C)CC(=O)N(C)[C@@H](C(C)C)C(=O)O[C@@H]4C)c3nc-2c(C(=O)N[C@@H]2C(=O)N[C@H](C(C)C)C(=O)N3CCC[C@H]3C(=O)N(C)CC(=O)N(C)[C@@H](C(C)C)C(=O)O[C@@H]2C)c(N)c1=O [Actinomycin D] (I: T[dV]P[Sar][NMeV] / II: T[dV]P[Sar][NMeV]; ester I:1-I:C, II:1-II:C; linker I:N-II:N via Actinocin(9to1))	10%	–	–
CC(=O)O[C@H]1C(=O)[C@@]2(C)[C@H]([C@H](OC(=O)c3ccccc3)[C@]3(O)C[C@H](OC(=O)[C@H](O)[C@@H](NC(=O)c4ccccc4)c4ccccc4)C(C)=C1C3(C)C)[C@]1(OC(C)=O)CO[C@@H]1C[C@@H]2O [Taxol]	–	more sensitive to taxol alone	highest inhibition of cell growth
CC[C@]1(O)C[C@@H]2CN(CCc3c([nH]c4ccccc34)[C@@](C(=O)OC)(c3cc4c(cc3OC)N(C)[C@H]3[C@@](O)(C(=O)OC)[C@H](OC(C)=O)[C@]5(CC)C=CCN6CC[C@]43[C@@H]65)C2)C1 [Vinblastine]	Approximately 15%	–	–
